This series in a line: log P by HPLC on reversed-phase column (C 18), acidic range. It counts as physicochemical. How it is done:
Temperature: 43° C. […] The log P values given in Table 3 were determined in accordance with EEC Directive 79/831 Annex V.A8 by HPLC (High Performance Liquid Chromatography) on a reversed-phase column (C 18). Temperature: 43° C. […] The log P values given in Tables 4 were determined in accordance with EEC Directive 79/831 Annex V.A8 by HPLC (High Performance Liquid Chromatography) on a reversed-phase column (C 18). Temperature: 43° C.

Marks after values point to notes of the source that are not given here.

As to `CCn1ncc(C(=O)c2ccc(-n3nc(C(F)(F)F)n(C)c3=O)cc2Cl)c1O` [Example 1, 4-methyl-5-trifluoromethyl-2-[3-chloro-4-(1-ethyl-5-hydroxy-pyrazol-4-yl-carbonyl)-phenyl]-2,4-dihydro-3H-1,2,4-triazol-3-one], the chromatographic logP (reversed-phase HPLC column (C 18), pH=2) is 2.63. Take `CCn1ncc(C(=O)c2ccc(S(C)(=O)=O)cc2Cn2nc(SC)n(C)c2=O)c1O` [Example 4]: the logP result is recorded as “logP = 1.24^a)”. `CCSc1nn(Cc2cc(C(F)(F)F)ccc2C(=O)c2cnn(CC)c2O)c(=O)n1C` [Example 5]: the logP result was “logP = 2.58^a)”. For `CCn1ncc(C(=O)c2ccc(C(F)(F)F)cc2Cn2nc(SC(C)C)n(C)c2=O)c1O` [Example 6], the logP result is reported as “logP = 2.90^a)”. Turning to `CCn1ncc(C(=O)c2ccc(C(F)(F)F)cc2Cn2nc(OC)n(C3CC3)c2=O)c1O` [Example 7], the logP result is “(IA)logP = 2.28^a)”. As to `CCn1ncc(C(=O)c2ccc(F)cc2Cn2nc(N(C)C)n(C)c2=O)c1O` [Example 8], the logP entry is listed as “logP = 1.61^a)”. Regarding `Cc1nn(C)c(O)c1C(=O)c1ccc(F)cc1Cn1nc(N(C)C)n(C)c1=O` [Example 9], the logP result is given as “logP = 1.32^a)”. In the case of `COc1nn(Cc2cc(F)ccc2C(=O)c2c(C)nn(C)c2O)c(=O)n1C1CC1` [Example 10], the logP entry is “(IA)logP = 1.50^a)”. Consider `CCOc1nn(Cc2cc(F)ccc2C(=O)c2c(C)nn(C)c2O)c(=O)n1C1CC1` [Example 11], for which the logP entry is “(IA)logP = 1.80^a)”. On the same count and under the same terms, under `C=CCSc1nn(Cc2cc(Br)ccc2C(=O)c2cnn(CC)c2O)c(=O)n1C` [Example 12] stands “(IA)logP = 2.69^a)”; under `CCn1ncc(C(=O)c2cc(-n3nc(C(F)(F)F)n(C)c3=O)ccc2C(F)(F)F)c1O` [Example 13], “logP = 2.83^a)”; under `CCn1ncc(C(=O)c2ccccc2-n2nc(C(F)(F)F)n(C)c2=O)c1O` [Example 15], “logP = 1.95^a)”. Same read-out and setting: the result for `CCn1ncc(C(=O)c2ccc(Cl)cc2-n2nc(C(F)(F)F)n(C)c2=O)c1O` [Example 16] reads “logP = 2.47^a)”.

For the compound `CCn1ncc(C(=O)c2ccc(Cl)c(Cn3nc(C(F)(F)F)n(C)c3=O)c2Cl)c1O` [Example 17], the logP entry is given as “logP = 2.30^a)”. As for `CCn1ncc(C(=O)c2ccc(Cl)c(Cn3nc(SC)n(C)c3=O)c2Cl)c1O` [Example 18], the logP result is “logP = 1.91^a)”. Consider `CCOc1nn(Cc2c(Cl)ccc(C(=O)c3cnn(CC)c3O)c2Cl)c(=O)n1C` [Example 19], for which the logP result is on record as “logP = 2.01^a)”.

Consider `CCn1ncc(C(=O)c2ccc(Cl)c(Cn3nc(C4CC4)n(C4CC4)c3=O)c2Cl)c1O` [Example 20], for which the logP result is listed as “(IB)logP = 2.14^a)”. `CCn1ncc(C(=O)c2ccc(Cl)c(Cn3nc(OC)n(C)c3=O)c2Cl)c1O` [Example 21]: the logP result was “logP = 1.69^a)”. As for `CCn1ncc(C(=O)c2ccc(Cl)c(Cn3nc(OC(C)C)n(C)c3=O)c2Cl)c1O` [Example 22], the logP entry was “logP = 2.31^a)”. The same measure, in the same setting: the result for `CCn1ncc(C(=O)c2ccc(Cl)c(Cn3nc(OCC(F)(F)F)n(C)c3=O)c2Cl)c1O` [Example 23] reads “logP = 2.33^a)”; that for `CCn1ncc(C(=O)c2ccc(Cl)c(Cn3nc(Br)n(C)c3=O)c2Cl)c1O` [Example 24], “logP = 1.81^a)”; that for `CCn1ncc(C(=O)c2ccc(Cl)c(Cn3ncn(C)c3=O)c2Cl)c1O` [Example 25], “logP = 1.28^a)”. Same read-out and setting: the result for `CCn1ncc(C(=O)c2ccc(Cl)c(Cn3nc(C4CC4)n(C)c3=O)c2Cl)c1O` [Example 26] reads “(IB)logP = 1.82^a)”; that for `CCn1ncc(C(=O)c2ccc(Br)cc2-n2nc(C(F)(F)F)n(C)c2=O)c1O` [Example 27], “logP = 2.55^a)”. With `CCn1ncc(C(=O)c2ccc(Cl)c(Cn3nc(N(C)C)n(C)c3=O)c2Cl)c1O` [Example 28], the logP result is reported as “logP = 1.77^a)”. Take `CCn1ncc(C(=O)c2ccc(Cl)c(Cn3nc(C)n(C)c3=O)c2Cl)c1O` [Example 29]: the logP result is reported as “logP = 1.38^a)”.

On to `CCn1ncc(C(=O)c2ccc(Cl)c(Cn3nc4n(c3=O)CCCC4)c2Cl)c1O` [Example 30], for which the logP entry is reported as “logP = 1.55^a)”. Consider `CCn1ncc(C(=O)c2ccc(Cl)c(Cn3nc(OC)n(C4CC4)c3=O)c2Cl)c1O` [Example 31], for which the logP result is “(IB)logP = 1.99^a)”. For the compound `CCOc1nn(Cc2c(Cl)ccc(C(=O)c3cnn(CC)c3O)c2Cl)c(=O)n1C1CC1` [Example 32], the logP result is reported as “(IB)logP = 2.31^a)”. For the compound `CCn1ncc(C(=O)c2ccc(Cl)c(Cn3nc(OC(C)C)n(C4CC4)c3=O)c2Cl)c1O` [Example 33], the logP entry is recorded as “(IB)logP = 4.64^a)”. On the same count and under the same terms, under `CCn1ncc(C(=O)c2ccc(Cl)c(Cn3nc(OCC(F)(F)F)n(C4CC4)c3=O)c2Cl)c1O` [Example 34] stands “(IB)logP = 2.65^a)”. In the case of `CCn1ncc(C(=O)c2ccc(Cl)c(Cn3nc(SC)n(C4CC4)c3=O)c2Cl)c1O` [Example 35], the logP entry is on record as “(IB)logP = 2.27^a)”. Consider `CCn1ncc(C(=O)c2ccc(Cl)c(Cn3nc(C)n(C4CC4)c3=O)c2Cl)c1O` [Example 36], for which the logP entry is “(IB)logP = 1.64^a)”. Still for that read-out and setting: the result for `CCn1ncc(C(=O)c2ccc(Cl)c(Cn3nc(N(C)C)n(C4CC4)c3=O)c2Cl)c1O` [Example 37] reads “(IB)logP = 2.04^a)”. Regarding `CCOn1c(CC)nn(Cc2c(Cl)ccc(C(=O)c3cnn(CC)c3O)c2Cl)c1=O` [Example 38], the logP result is given as “(IB)logP = 2.16^a)”. Still for that read-out and setting: the result for `Cc1nn(C)c(O)c1C(=O)c1ccc(Cl)c(Cn2nc(Br)n(C)c2=O)c1Cl` [Example 39] reads “logP = 1.52^a)”. For the compound `Cn1ncc(C(=O)c2ccc(Cl)c(Cn3nc(Br)n(C)c3=O)c2Cl)c1O` [Example 40], the logP entry is reported as “logP = 1.53^a)”. For `CCn1nc(C)c(C(=O)c2ccc(Cl)c(Cn3nc(SC)n(C)c3=O)c2Cl)c1O` [Example 41], the logP entry is given as “logP = 1.91^a)”. `CCOc1nn(Cc2c(Cl)ccc(C(=O)c3c(C)nn(CC)c3O)c2Cl)c(=O)n1C` [Example 42]: the logP entry is “logP = 2.02^a)”. Turning to `CCn1nc(C)c(C(=O)c2ccc(Cl)c(Cn3nc(OC)n(C)c3=O)c2Cl)c1O` [Example 43], the logP entry is “logP = 1.71^a)”. Same read-out and setting: under `CCn1nc(C)c(C(=O)c2ccc(Cl)c(Cn3nc(Br)n(C)c3=O)c2Cl)c1O` [Example 44] stands “logP = 1.81^a)”.

For the compound `CCn1nc(C)c(C(=O)c2ccc(Cl)c(Cn3nc(C)n(C)c3=O)c2Cl)c1O` [Example 45], the logP result was “logP = 1.40^a)”.

Consider `CSc1nn(Cc2c(Cl)ccc(C(=O)c3c(C)nn(C(C)(C)C)c3O)c2Cl)c(=O)n1C` [Example 46], for which the logP entry is given as “logP = 3.30^a)”.

On to `CCOc1nn(Cc2c(Cl)ccc(C(=O)c3c(C)nn(C(C)(C)C)c3O)c2Cl)c(=O)n1C` [Example 47], for which the logP result was “logP = 3.44^a)”. On the same count and under the same terms, the result for `COc1nn(Cc2c(Cl)ccc(C(=O)c3c(C)nn(C(C)(C)C)c3O)c2Cl)c(=O)n1C` [Example 48] reads “logP = 3.02^a)”; that for `Cc1nn(C(C)(C)C)c(O)c1C(=O)c1ccc(Cl)c(Cn2nc(Br)n(C)c2=O)c1Cl` [Example 49], “logP = 3.19^a)”; that for `Cc1nn(C(C)(C)C)c(O)c1C(=O)c1ccc(Cl)c(Cn2nc(C)n(C)c2=O)c1Cl` [Example 50], “logP = 2.53^a)”.

Regarding `CSc1nn(Cc2c(Cl)ccc(C(=O)c3c(C)nn(C)c3O)c2Cl)c(=O)n1C` [Example 51], the logP result is reported as “logP = 1.66^a)”.

As for `CCOc1nn(Cc2c(Cl)ccc(C(=O)c3c(C)nn(C)c3O)c2Cl)c(=O)n1C` [Example 52], the logP result is listed as “logP = 1.76^a)”. For `COc1nn(Cc2c(Cl)ccc(C(=O)c3c(C)nn(C)c3O)c2Cl)c(=O)n1C` [Example 53], the logP result is listed as “logP = 1.48^a)”. With `Cc1nn(C)c(O)c1C(=O)c1ccc(Cl)c(Cn2nc(C)n(C)c2=O)c1Cl` [Example 54], the logP entry is “logP = 1.20^a)”. Same read-out and setting: the result for `CSc1nn(Cc2c(Cl)ccc(C(=O)c3cnn(C)c3O)c2Cl)c(=O)n1C` [Example 55] reads “logP = 1.67^a)”; that for `CCOc1nn(Cc2c(Cl)ccc(C(=O)c3cnn(C)c3O)c2Cl)c(=O)n1C` [Example 56], “logP = 1.77^a)”. For `COc1nn(Cc2c(Cl)ccc(C(=O)c3cnn(C)c3O)c2Cl)c(=O)n1C` [Example 57], the logP entry is recorded as “logP = 1.48^a)”.

Consider `Cc1nn(Cc2c(Cl)ccc(C(=O)c3cnn(C)c3O)c2Cl)c(=O)n1C` [Example 58], for which the logP entry is “logP = 1.19^a)”.

With `CCOc1nn(Cc2ccc(C(=O)c3cnn(CC)c3O)c([N+](=O)[O-])c2OC)c(=O)n1C` [Example 59], the logP entry is recorded as “logP = 1.99^a)”. Regarding `CCn1ncc(C(=O)c2ccc(Cn3nc(SC)n(C)c3=O)c(OC)c2[N+](=O)[O-])c1O` [Example 60], the logP result is recorded as “logP = 1.92^a)”. Take `CCn1ncc(C(=O)c2ccc(Cl)c(Cn3nc(SC)n(C)c3=O)c2F)c1O` [Example 62]: the logP result was “logP = 1.99^a)”. Turning to `CCn1ncc(C(=O)c2ccc(C(F)(F)F)cc2Cn2nc(C)n(C)c2=O)c1O` [Example 64], the logP entry is listed as “logP = 1.80^a)”. Still for that read-out and setting: under `CCn1ncc(C(=O)c2ccc(C(F)(F)F)cc2Cn2nc(COC)n(C)c2=O)c1O` [Example 65] stands “logP =1.98^a)”; under `CCn1ncc(C(=O)c2ccc(C(F)(F)F)cc2Cn2nc(OC)n(C)c2=O)c1O` [Example 66], “logP = 2.27^a)”. As to `CCn1ncc(C(=O)c2ccc(S(C)(=O)=O)cc2Cn2nc(C(F)(F)F)n(C)c2=O)c1O` [Example 67], the logP result is “logP = 1.60^a)”. For the compound `CCn1ncc(C(=O)c2ccc(S(C)(=O)=O)cc2Cn2nc(OCC(F)(F)F)n(C)c2=O)c1O` [Example 68], the logP entry was “logP = 1.73^a)”. For the compound `CCn1ncc(C(=O)c2ccc(F)c(Cn3nc(C)n(C)c3=O)c2Cl)c1O` [Example 69], the logP result is on record as “logP = 1.76^a)”. For `CCn1ncc(C(=O)c2ccc(F)c(Cn3nc(SC)n(C)c3=O)c2Cl)c1O` [Example 70], the logP entry was “logP = 1.76^a)”.

These data come from patent publication US7279444B2, “Substituted benzoylpyrazoles” (Bayer CropScience GmbH, priority 1999, dated 2007).
